The results in this text go back to paper PMC6315057, “Industrial scale high-throughput screening delivers multiple fast acting macrofilaricides” (Nature Communications, 2019).

Data set [1] concerns Wolbachia within Brugia malayi Mf. The data set can be described thus: Anti-Wolbachia time-kill analysis (timed wash-out) in B. malayi Mf. The format is cell-based. The settings on record: 10x EC50, 1 day exposure, wash, 6-day read out, normalised to vehicle control. The text has this:
To compare the dynamics of the in vitro phenotype of our hits with existing anti-Wolbachia therapies, we employed a timed wash-out strategy (Fig. 5) at 10x EC50 to establish the anti-Wolbachia time-kill kinetics of the selected chemotypes (1A–5A), using five replicates per compound. […].
Fig. 5 Anti-Wolbachia time-kill analysis. Representatives from the top five clusters (1A–5A), as well as established anti-Wolbachia antibacterials (doxycycline (white), minocycline (grey), rifampicin (black)) were assessed after exposure for 1 day and 2 days before washing and further incubation until the standard 6-day read out. wsp:gst ratio was normalised to the DMSO vehicle control resulting in a read out of mean percentage reduction from control. Doxycycline day 6 treatment represents the result for exposure to doxycycline at 5 µM for a full 6 days (no wash). The box extends from the 25th to the 75th percentile with the median presented by the central line. The whiskers are set at the minimum and maximum therefore indicating the range from five replicates. The cluster number is indicated by colour: cluster 1 (dark blue), 2 (magenta), 3 (teal), 4 (dark gold), and 5 (light blue)
The Mf were obtained by peritoneal lavage, using a catheter, of gerbils (Meriones unguiculatus) harbouring a patent infection of B. malayi. Mf were purified using a PD-10 desalting column (Fisher), centrifuged (311 RCF for 5 min at room temperature) before the addition of 8000 Mf/well of a 96-well plate (100 µl per well) in complete media consisting of RPMI supplemented with 10% FBS, 1% penicillin streptomycin and 1% amphotericin B. Compounds were diluted in complete media and 100 µl was added per well, providing a final concentration of 5 µM, with five replicates per compound. Each plate contained doxycycline (5 µM) and DMSO controls. After incubation at 37 °C for 6 days in 5% CO2, visual assessment of Mf motility was performed and scored from 0 to 4 per well (where 0 = no movement and 4 = highly motile). DNA extraction per sample was performed using the QIAmp DNA Mini Kit before quantitative PCR was performed to obtain the ratio of Wolbachia Surface Protein gene copy number (wsp) to Glutathione S-Transferase gene copy number (gst)[36]. The DNA was amplified using the primers as indicated in Supplementary Table 6.
The wsp:gst ratio data allowed for normalisation of the Wolbachia level to the Mf biomass for each well. The change in wsp:gst for each compound compared to the DMSO control was calculated before normalisation to the onboard doxycycline control to allow for inter-assay comparison.

Data set [2] can be described thus: Human plasma protein binding. The format is in vitro ADME. The settings on record: plasma. The source says: (§1) The DMPK data used for triaging compounds, including LogD7.4, aqueous solubility, plasma protein binding, microsome and hepatocyte clearance measurements, were generated using the standard AstraZeneca UK high-throughput platform[37],[38].
In data set [3] the test system is Wolbachia within Brugia malayi Mf. The data set can be described thus: B. malayi microfilarial (Mf) in vitro anti-Wolbachia assay (wsp:gst qPCR). The format is cell-based.
The nature of a further data set: LogD7.4. The settings on record: pH 7.4. The format is physicochemical.
Source text: as §1

The subject of another data set is THP-1 cells. As to the kind of experiment: Mammalian cell viability counter-screen (CellTiter-Blue). The format is cell-based, human. The settings on record: Homo sapiens, 48 h, read-out: HTS IC50 mammalian toxicity. The method, then:
The human monocytic THP-1 cell line (ATCC® TIB-202) used for mammalian cytotoxicity evaluation was routinely cultured in roller bottles. Growth media consisted of RPMI 1640 supplemented with 10% FBS and 2 mM L-glutamine. Cells were maintained at 37 °C with 95% humidity in 5% CO2 in a shaking incubator.
All compounds selected for secondary IC50 screen were tested in parallel for mammalian cell viability using the CellTiter-Blue® Cell Viability Assay. THP1 cells were removed from culture and plated at 1 × 10^4 cells/well (40 µl) into 384-well assay ready plates and incubated at 37 °C, 5% CO2 for 48 h at 95% humidity. After the addition of CellTiter-Blue Viability reagent (8 µl of a 1:6 dilution) the assay plates were incubated for a further 2 h before fluorescence detected using a PerkinElmer EnVision™ plate reader.

The subject of data set [4] is Wolbachia in C6/36 (wAlbB) cells. As to the kind of experiment: Confirmatory re-assessment in the insect cell screen (cell assay EC50). The class given is cell-based, Wolbachia pipientis wAlbB (in Aedes albopictus C6/36 cells). The settings on record: for EC50: Wolbachia, C6/36, insect cell screen, re-sourced or re-synthesised samples. The source says: To further validate the hit molecules from these 9 clusters, samples were sourced either from the AstraZeneca compound inventory or through re-synthesis. All 18 samples were characterised by nuclear magnetic resonance (NMR) and mass spectroscopy to confirm their chemical structures and by HPLC/LCMS to establish their purity (Supplementary Table 5 and Supplementary Data 1). These samples were also subject to confirmatory re-assessment in both the insect cell screen and Mf assays for anti-Wolbachia potency alongside confirmation of DMPK properties (LogD7.4, aqueous solubility in pH 7.4 PBS, human microsomal turnover, rat hepatocyte turnover and human plasma protein binding) (Fig. 4, Supplementary Figure 1 and Supplementary Table 4).
On day 0, a single cryovial was recovered and the cells washed before being transferred to a T225 cm^2 flask. After a 7-day recovery Wolbachia infection level (quality control (QC)) was checked by SYTO®11 DNA staining of both the host cell nuclei and intracellular Wolbachia. The end-point read out from the Operetta® high content imaging system (Perkin Elmer) was the percentage of cells infected with Wolbachia. This was obtained from cytoplasm texture analysis by the associated Harmony® software. Cells with a >50% of the population infected with Wolbachia were classed as having a good Wolbachia level and therefore used for screening through addition of 2000 cells per well into assay ready 384-well plates containing the test compounds. […] Each plate included on-board controls; vehicle/DMSO (total/maximum Wolbachia signal) or doxycycline 5 µM (null/minimum Wolbachia signal), resulting in single shot screening of 352 compounds per plate for the primary screen. […] QC plates were also created including full columns of the following controls; DMSO (total/max), 5 μM doxycycline (null/min), as well as 50 nM doxycycline (reference/medium Wolbachia signal). Daily batches contained ~150 compound plates in addition to the QC plates. Each compound plate was foil sealed before incubation for 7 days at 26 °C, 95% humidity and atmospheric air.

[5] abbreviates: Brugia malayi, 144 h, B. malayi Mf, 6 days, read-out: Mf EC50.
Where [6] appears, read: category bounds in the picture of Fig. 4, read-out: Mf EC50 (category given in Fig. 4).

Where two headings read alike, the source gives them in different places. Where only a bound is given, the exact number is not on record here.

As to `Cc1nccc(N2CCC(C(=O)N(C)CCN(C)S(=O)(=O)c3ccc(Br)cc3)CC2)n1` [1A, N-(2-((4-bromo-N-methylphenyl)sulfonamido)ethyl)-N-methyl-1-(2-methylpyrimidin-4-yl)piperidine-4-carboxamide], the “Wolbachia reduction after a single day of exposure” value (from here on “Wolbachia reduction”) in data set [1] was 57–67%. In data set [2], this compound gave a fraction unbound of 0.24. Moreover, the EC50 in data set [3] (setting [5]) is around 0.161 µM; in data set [3] (setting [6]) it was below 0.2 µM; in data set [4] it was 0.192 µM. The compound also came in with a logD in “LogD7.4” of 2.6. In addition, the IC50 with THP-1 cells is above 30.6 µM.
Turning to `COc1ccc(CC(=O)Nc2[nH]nc(C)c2-c2ccccc2)c(Cl)c1` [2A, 2-(2-chloro-4-methoxyphenyl)-N-(3-methyl-4-phenyl-1H-pyrazol-5-yl)acetamide], the “Wolbachia reduction” value in data set [1] is 57–67%. The compound further showed a fraction unbound in data set [2] of 0.021. In addition, the EC50 in data set [3] (setting [5]) was 0.164 µM; in data set [3] (setting [6]), below 0.2 µM; in data set [4], 0.242 µM. Besides, in “LogD7.4”, the logD came out at 3.1. Moreover, the IC50 in the data set with THP-1 cells is above 30.6 µM.
As for `CC1COCCN1c1cc(OCc2ccccc2)nc(-c2nccn2C)n1` (centres unmarked) [3A, 4-(6-(benzyloxy)-2-(1-methyl-1H-imidazol-2-yl)pyrimidin-4-yl)-3-methylmorpholine], in data set [1], the “Wolbachia reduction” value was found to be 42%. For the same compound, the fraction unbound in data set [2] was 0.042. For the same compound, the EC50 is around 0.183 µM in data set [3] (setting [5]), below 0.2 µM in data set [3] (setting [6]) and 0.662 µM in data set [4]. The same compound had a logD in the data set “LogD7.4” of 3.3. Further, in the data set on THP-1 cells, the IC50 was above 30.6 µM.
With `CCc1ccc(CN2CCCC2c2nc(C(=O)N(C)C)cs2)s1` (centres unmarked) [4A, 2-(1-((5-ethylthiophen-2-yl)methyl)pyrrolidin-2-yl)-N,N-dimethylthiazole-4-carboxamide], in data set [1], the “Wolbachia reduction” value is 57–67%. Moreover, the fraction unbound in data set [2] is 0.078. The “Mf in vitro potency (in words)” value in data set [3] is given as “good”. Moreover, the results for the EC50 in data set [3] (setting [5]), in data set [3] (setting [6]) and in data set [4] were around 0.219 µM, 0.2 to 1 µM and 0.041 µM, respectively. In “LogD7.4”, this compound came in with a logD of 3.2. Moreover, the IC50 in the data set with THP-1 cells is above 30.6 µM. Besides, in data set [4], the “Insect cell screen activity (in words)” value is listed as “strong”.
With `Cc1nc(C(=O)NC(C)c2ccc(F)cc2)c(NC(=O)Cc2ccccc2)[nH]1` (centres unmarked) [5A, N-(1-(4-fluorophenyl)ethyl)-2-methyl-5-(2-phenylacetamido)-1H-imidazole-4-carboxamide], the “Wolbachia reduction” value in data set [1] is 57–67%. For the same compound, the fraction unbound in data set [2] was 0.073. In addition, the “Mf in vitro potency (in words)” value in data set [3] is recorded as “comparatively good”. Besides, the results for the EC50 in data set [3] (setting [5]), in data set [3] (setting [6]) and in data set [4] were around 0.271 µM, 0.2 to 1 µM and 0.296 µM, respectively. In the data set “LogD7.4”, the logD is 3.5. Besides, the IC50 with THP-1 cells was above 30.6 µM.
